In patent publication US9487479B2, “Small molecule inhibitors of N-terminus activation of the androgen receptor” (The University of British Columbia, priority 2008, dated 2016):

Assays:
androgen receptor (AR) = molecular target: T1, androgen receptor (AR) (Homo sapiens, UniProt P10275, T878A); test: PSA (6.1 kb)-luciferase reporter assay in LNCaP cells; type: cell-based; details: R1881 1 nM, 24 hours; for inhibition of R1881 induction of PSA (6.1)-luciferase: 1 hour pretreatment
T1 construct: endogenous in cells; host or cells: LNCaP human prostate cancer cells
T1 sequence (P10275 1-920 T878A): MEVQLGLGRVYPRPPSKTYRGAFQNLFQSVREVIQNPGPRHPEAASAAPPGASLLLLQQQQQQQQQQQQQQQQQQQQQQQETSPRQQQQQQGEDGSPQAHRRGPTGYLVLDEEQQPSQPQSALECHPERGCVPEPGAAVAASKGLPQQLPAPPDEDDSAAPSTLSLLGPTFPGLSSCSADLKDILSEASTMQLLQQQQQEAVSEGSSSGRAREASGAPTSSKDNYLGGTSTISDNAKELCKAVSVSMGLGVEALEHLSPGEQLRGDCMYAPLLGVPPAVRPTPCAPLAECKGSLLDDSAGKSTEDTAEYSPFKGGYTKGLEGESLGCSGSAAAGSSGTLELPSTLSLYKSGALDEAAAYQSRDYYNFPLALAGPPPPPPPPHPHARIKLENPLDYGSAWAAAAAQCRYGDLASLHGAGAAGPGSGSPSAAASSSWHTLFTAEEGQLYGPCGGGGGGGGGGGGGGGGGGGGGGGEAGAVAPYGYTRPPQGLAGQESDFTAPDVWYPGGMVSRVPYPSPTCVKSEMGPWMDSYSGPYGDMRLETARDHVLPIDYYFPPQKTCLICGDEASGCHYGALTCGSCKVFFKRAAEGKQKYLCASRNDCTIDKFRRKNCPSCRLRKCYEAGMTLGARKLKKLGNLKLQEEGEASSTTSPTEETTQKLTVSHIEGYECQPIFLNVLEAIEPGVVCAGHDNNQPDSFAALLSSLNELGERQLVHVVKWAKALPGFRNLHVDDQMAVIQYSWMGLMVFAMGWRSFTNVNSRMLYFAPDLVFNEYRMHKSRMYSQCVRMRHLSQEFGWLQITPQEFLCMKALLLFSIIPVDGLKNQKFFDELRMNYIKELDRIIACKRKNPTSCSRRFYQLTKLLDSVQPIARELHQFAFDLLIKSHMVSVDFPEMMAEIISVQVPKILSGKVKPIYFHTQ
Method: White bars represent no steroid (ethanol control). Wherein glucocorticoid receptor (GR) and progesterone receptor (PR).
The cells were harvested 24 hours later and analyzed for luciferase activity. The data is normalized to protein that was measured using Bradford assay.
Sequence similarities of amino acids in the AR with related human steroid receptors (glucocorticoid receptor (GR) and progesterone receptor (PR)) are significant in some domains such as the DNA-binding-domain (DBD). Although the AR-NTD shares less than 15% homology with the PR and GR, these receptors do interact with some of the same proteins such as SRC-1 (steroid receptor coactivator-1). […] Cells were co-transfected with expression plasmids for full-length hGR and PRβ and the relative reporter (i.e., pGR-Luc or PRE-E1b-Luc reporters). Cells were then treated with ethanol vehicle, dexamethasone (GR), 4-pregnene-3,20 dione (progesterone) (PR) followed by measurement of luciferase activity.
Activation of the endogenous AR was measured in LNCaP human prostate cancer cells by measuring an androgen-responsive reporter containing androgen response elements (AREs). The PSA (6.1 kb)-luciferase reporter gene construct contains several well-characterized AREs and is induced by androgen.

PSA mRNA = test: Androgen-induced PSA mRNA levels in LNCaP cells (qRT-PCR); type: cell-based, human; details: R1881 1 nM, 16 hours; for inhibition of androgen-induced levels of PSA mRNA: 10 μg/ml, 1 hour pretreatment
Method: Levels of PSA mRNA were measured by quantitative real-time (qRT)-PCR and normalized to levels of GAPDH mRNA (housekeeping gene). White bar: no R1881. Black bars: R1881 (1 nM). MNE: mean normalized expression. DMSO (no R1881) was arbitrarily set at 1.0 for each individual experiment. Bars represent the mean±SE from 3 separate experiments using triplicate technical samples from each experiment.
PSA is an androgen-regulated gene containing several well-characterized androgen response elements (AREs) in the enhancer and promoter regions. Levels of PSA mRNA are induced by androgen by a mechanism dependent androgen receptor. To test if sintokamides would also block endogenous gene expression induced by androgen, levels of PSA mRNA were measured in response to the synthetic androgen R1881.

LNCaP cells = test: Androgen-dependent proliferation of LNCaP cells (BrdU incorporation); type: cell-based, human; details: R1881 0.1 nM, 3 days
Method: BrdU incorporation was measured 3 days later to indicate changes in proliferation in response to androgen (see FIG. 3B).

Row | Compound | inhibition of R1881 induction of PSA (6.1)-luciferase (androgen receptor (AR); 5 μg/ml) | inhibition of androgen-induced levels of PSA mRNA (PSA mRNA) | other results
1 | Dysamide A [CB3.0] | some activity | inhibit | inhibition of R1881 induction of PSA (6.1)-luciferase (androgen receptor (AR); 5 μg/ml, listed as Dysimide A): inhibition
2 | CCC(=O)N[C@H](C[C@H](C)C(Cl)Cl)C(=O)N1C(=O)C=C(OC)[C@@H]1C[C@H](C)C(Cl)Cl [CB1.1, Sintokamide C] | inhibition | – | –
3 | C[C@]1(O)CC[C@H]2[C@@H]3CCC4=CC(=O)CCC4=C3C=C[C@@]21C [Sintokamide R1881, R1881, reference compound] | – | – | induction of PSA-luciferase activity (androgen receptor (AR)): approximately 6 fold; proliferation over control (BrdU incorporation) (LNCaP cells): increased proliferation over control; induction of levels of PSA mRNA (PSA mRNA): at least 3 fold
4 | CCC(=O)N[C@H](C[C@H](C)C(Cl)(Cl)Cl)C(=O)N1C(=O)C=C(OC)[C@@H]1CC(C)C [CB2.1, Sintokamide E] | inhibition | – | –
5 | CCC(=O)N[C@H](CC(C)C)C(=O)N1C(=O)C=C(OC)[C@@H]1CC(C)C [non-chlorinated sintokamide, N—((R)-1-((S)-2-isobutyl-3-methoxy-5-oxo-2,5-dihydro-1H-pyrrol-1-yl)-4-methyl-1-oxopentan-2-yl)propionamide] | – | – | inhibition of R1881 induction of PSA (6.1)-luciferase (androgen receptor (AR); 10 μM): some activity
6 | CCC(=O)N[C@H](C[C@H](C)C(Cl)(Cl)Cl)C(=O)N1C(=O)C=C(OC)[C@@H]1C[C@H](C)C(Cl)(Cl)Cl [CB4.0, Sintokamide B] | inhibition | inhibit | –
